Where a SMILES comes first, the peptide text is derived from it. Where no end group is shown, it is not given here. [ ]: non-standard residue; d: D form. The star is where a group is joined. pT = C[C@@H](OP(=O)(O)O)[C@H](N)C(=O)O; Hyp = O=C(O)[C@@H]1C[C@@H](O)CN1; Butyl(4-Ph) = c1ccc(CCCC*)cc1
Experiments:
[1] = molecular target: HA-EGFP-Plk1 (Plk1 PBD) in mitotic 293A cell lysates (Homo sapiens, UniProt P53350); test: ELISA-based PBD-binding inhibition assay; conditions: relative comparison; oxime libraries tested as crude reaction mixtures
Flag-Plk2 (K108M) = Flag-Plk2 (K108M) (Mus musculus, UniProt P53351, K108M); test: Peptide pull-down assay from mitotic 293T cell lysates, Plk2; conditions: bead-immobilized peptide, anti-Flag immunoblot
Flag-Plk2 (K108M), sequence (P53351 whole entry K108M): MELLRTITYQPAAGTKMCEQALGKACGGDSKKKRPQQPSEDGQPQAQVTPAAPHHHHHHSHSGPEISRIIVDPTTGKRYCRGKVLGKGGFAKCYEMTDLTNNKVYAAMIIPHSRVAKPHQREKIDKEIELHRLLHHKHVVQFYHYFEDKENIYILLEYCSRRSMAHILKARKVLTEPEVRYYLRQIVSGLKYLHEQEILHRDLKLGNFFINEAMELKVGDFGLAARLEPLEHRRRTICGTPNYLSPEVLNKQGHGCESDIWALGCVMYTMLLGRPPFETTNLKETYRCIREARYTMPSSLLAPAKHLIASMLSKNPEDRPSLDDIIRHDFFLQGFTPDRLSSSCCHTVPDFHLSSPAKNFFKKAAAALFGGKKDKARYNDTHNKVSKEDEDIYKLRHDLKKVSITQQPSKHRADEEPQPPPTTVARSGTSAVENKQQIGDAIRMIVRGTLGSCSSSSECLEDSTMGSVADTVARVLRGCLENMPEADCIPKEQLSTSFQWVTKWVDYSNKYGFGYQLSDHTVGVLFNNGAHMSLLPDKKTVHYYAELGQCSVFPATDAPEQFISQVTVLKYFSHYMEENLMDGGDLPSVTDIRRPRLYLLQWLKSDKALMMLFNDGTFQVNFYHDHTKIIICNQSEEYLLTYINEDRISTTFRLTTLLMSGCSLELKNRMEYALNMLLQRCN

HA-EGFP-Plk1 (Plk1 PBD) in mitotic 293A cell lysates, sequence (P53350 whole entry): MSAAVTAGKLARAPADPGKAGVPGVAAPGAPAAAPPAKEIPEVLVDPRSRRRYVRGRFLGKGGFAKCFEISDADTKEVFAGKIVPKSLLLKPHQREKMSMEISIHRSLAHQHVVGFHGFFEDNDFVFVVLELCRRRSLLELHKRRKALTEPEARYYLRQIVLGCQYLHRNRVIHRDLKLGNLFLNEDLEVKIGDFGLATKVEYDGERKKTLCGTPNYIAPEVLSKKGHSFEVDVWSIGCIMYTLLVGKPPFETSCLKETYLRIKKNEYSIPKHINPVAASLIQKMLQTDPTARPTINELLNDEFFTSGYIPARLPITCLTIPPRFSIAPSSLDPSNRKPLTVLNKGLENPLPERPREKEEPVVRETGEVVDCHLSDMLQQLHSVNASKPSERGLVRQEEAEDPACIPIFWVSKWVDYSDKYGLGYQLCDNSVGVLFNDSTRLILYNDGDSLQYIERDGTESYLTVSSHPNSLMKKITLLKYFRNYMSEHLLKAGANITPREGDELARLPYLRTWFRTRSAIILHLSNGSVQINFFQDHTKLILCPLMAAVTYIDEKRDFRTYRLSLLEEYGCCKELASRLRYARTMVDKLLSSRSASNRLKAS

relative binding affinity in ELISA-based Plk1 inhibition assay [1] | band for binding to Plk2 in pull-down (Flag-Plk2 (K108M)) | band for binding to Plk2 in pull-down (Flag-Plk2 (K108M); listed as 7*) | Compound
significant loss of affinity | – | – | 8(S4A): variant of 8 with the serine residue replaced by alanine (P(Butyl(4-Ph))LHA[pT])
significant loss of affinity | – | – | CC(=O)N1C[C@H](OCCCCc2ccccc2)C[C@H]1C(=O)N[C@@H](CC(C)C)C(=O)N[C@@H](Cc1c[nH]cn1)C(=O)N[C@@H](C)C(=O)N[C@H](C(N)=O)[C@@H](C)OP(=O)(O)O [7(S4A)] (Ac-[Hyp](Butyl(4-Ph))LHA[pT]-NH2; N-terminus and C-terminus assumed)
– | faint band | not seen | CC(=O)N1C[C@H](OCCCCc2ccccc2)C[C@H]1C(=O)N[C@@H](CC(C)C)C(=O)N[C@@H](Cc1c[nH]cn1)C(=O)N[C@@H](CO)C(=O)N[C@H](C(N)=O)[C@@H](C)OP(=O)(O)O [compound 7]
